Results taken from US11034661B2, “Substituted N′-hydroxycarbamimidoyl-1,2,5-oxadiazole compounds as indoleamine 2,3-dioxygenase IDO inhibitors” (Merck Sharp & Dohme Corp., priority 2017, dated 2021).

How the values were obtained:
[1] = target: HIS-tagged IDO1 protein (Homo sapiens (Human), UniProt P14902); test: IDO1 Enzyme Assay; assay type: biochemical; conditions: recombinant IDO1 40 nM, tryptophan substrate, fluorescence readout
Procedure, shortened: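 Recombinant E. coli-expressed HIS-IDO1 (40 nM final) in 50 mM Tris pH 7.0 with methylene blue, ascorbate and catalase, preincubated with compound 30 min at RT, then tryptophan added and reacted 60 min at RT. Quenched with methyl isonipecotate, heated, fluorescence read (ex 400/em 510 nm); IC50 from four-parameter logistic fit.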

[2] = target: IDO1 in Hela cells stimulated with IFNγ (Homo sapiens (Human), UniProt P14902); test: IDO1 Cellular Assay in Hela Cells Stimulated with IFNγ; assay type: cell-based; conditions: IFNγ 100 ng/mL, about 48 hours, fluorescence readout, read-out: IDO1 HELA Cell Assay, IC50
Procedure, shortened: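 IFNγ-stimulated (100 ng/mL) HeLa cells with 300 uM L-tryptophan were incubated with 10-point 3-fold compound dilutions for about 48 h at 37 °C. Kynurenine product was derivatized with methyl isonipecotate overnight and read by fluorescence (ex 400/em 510 nm). Signal was background-corrected using non-IFNγ cells and normalized to DMSO, and IC50 came from a four-parameter logistic fit.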

[3] = target: IDO1 in human whole blood stimulated with LPS and IFNγ (Homo sapiens (Human), UniProt P14902); test: IDO1 Human Whole Blood Assay; assay type: cell-based; conditions: LPS and IFNγ 100 ng/mL, 18 h, kynurenine by LC/MS/MS
Description: IDO1 Human Whole Blood Assay
Compounds to be tested were serially diluted in ten 3-fold steps in DMSO starting from 10 mM. 3 μL of compound dilutions or DMSO alone were then dispensed from the dilution plate into a polypropylene 96-well assay plate containing 97 μL of RPMI using an Echo 555 acoustic liquid handler (Labcyte). LPS and IFNγ was prepared in RPMI to a 10× of final conc. (1000 ng/mL), final concentration is 100 ng/mL.
Human whole blood was drawn in sodium heparin coated tubes from healthy internal donors. Two hundred forty μL of blood was transferred to each of the wells of a v-bottom 96 well plate. Thirty μL of compound was transferred from intermediate dilution plate, and incubated for 15 min. Thirty μL from stimulants was then transferred to blood and mixed thoroughly. Plate was covered with breathable membrane and incubated at 37° C. for overnight (18 h).
On day 2 isotope labeled standard of kynurenine and tryptophan was made in water at 10× concentration and 30 μL was added to the blood at 3 μM final concentration. The assay plates were centrifuged at 300×G for 10 min with no brake to separate plasma from red blood cells. Sixty μL of plasma samples was removed without disturbing red blood cells. Plasma was diluted with RPMI in 1:1 ratio and proteins were precipitated out with two volume of Acetonitrile. The plates was centrifuged at 4000×G for 60 min. Twenty μL of supernatant was carefully transferred to a 384 well plate contain 40 μL of 0.1% formic acid in water and analyzed by LC/MS/MS.
LC/MS/MS analyses were performed using Thermo Fisher's LX4-TSQ Quantum Ultra system. This system consists of four Agilent binary high-performance liquid chromatography (HPLC) pumps and a TSQ Quantum Ultra triple quadruple MS/MS instrument. For each sample, 5 μL were injected onto an Atlantis T3 column (2.1 mm×150 mm, 3 μm particle size) from Waters. The mobile phase gradient pumped at 0.8 mL/min was used to elute the analytes from the column at 25° C. The elution started at 0% B increasing linearly to 25% B at 6.5 min, holding at 25% for 1 min, re-equilibrating to 10 min. Mobile phase A consisted of 0.1% formic acid in water. Mobile phase B consisted of 0.1% of formic acid in acetonitrile. Data was acquired in positive mode using a HESI interface. The operational parameters for the TSQ Quantum Ultra instrument were a spray voltage of 4000 V, capillary temperature of 380° C., vaporizer temperature 400° C., shealth gas 60 arbitrary units, Aux gas 20 arbitrary units, tube lens 85 and collision gas 1.2 mTorr. SRM chromatograms of kynurenine (Q 1: 209.2>Q3:94.0) and internal standard (Q1: 215.3>Q3:98.2) were collected for 90 sec. The peak area was integrated by Xcalibur Quan software. The ratios between the kynurenine generated in the reaction and 2D6-Kynurenine spiked-in internal standard were used to generate percentage inhibition and IC50 values. Compounds were titrated and IC50's were calculated by 4 parameter sigmoidal curve fitting formula.

HIS-tagged IDO1 protein, sequence (P14902 whole entry): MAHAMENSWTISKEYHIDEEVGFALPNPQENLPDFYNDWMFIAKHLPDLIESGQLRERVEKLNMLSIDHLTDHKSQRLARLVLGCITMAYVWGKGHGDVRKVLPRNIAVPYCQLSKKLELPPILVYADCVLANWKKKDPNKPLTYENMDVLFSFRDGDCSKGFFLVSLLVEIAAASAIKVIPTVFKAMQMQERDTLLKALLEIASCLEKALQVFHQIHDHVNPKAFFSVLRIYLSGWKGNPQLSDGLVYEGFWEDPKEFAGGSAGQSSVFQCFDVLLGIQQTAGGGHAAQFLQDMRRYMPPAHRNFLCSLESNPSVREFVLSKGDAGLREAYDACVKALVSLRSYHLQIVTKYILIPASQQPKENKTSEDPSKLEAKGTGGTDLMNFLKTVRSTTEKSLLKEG
IDO1 in Hela cells stimulated with IFNγ, sequence (P14902 whole entry): as above
IDO1 in human whole blood stimulated with LPS and IFNγ, sequence (P14902 whole entry): as above

With `O=C(N1CC(Oc2nonc2/C(=N/O)N[C@H]2Cc3ccc(F)cc32)C1)C1(O)CC1` [Example 47, N-[(7S)-4-fluorobicyclo[4.2.0]octa-1,3,5-trien-7-yl]-N′-hydroxy-4-{[1-(1-hydroxycyclopropane-1-carbonyl)azetidin-3-yl]oxy}-1,2,5-oxadiazole-3-carboximidamide] the IC50 [1] was 56.6 nM, the IC50 [2] was 49.9 nM and the “IDO1 human whole blood assay, IC50” value [3] was 500.6 nM.
With `NC(=O)N[C@H]1C[C@H](Oc2nonc2/C(=N/O)N[C@H]2Cc3ccc(F)cc32)C1` [Example 57, 4-{[trans-3-(carbamoylamino)cyclobutyl]oxy}-N-[(7S)-4-fluorobicyclo[4.2.0]octa-1,3,5-trien-7-yl]-N′-hydroxy-1,2,5-oxadiazole-3-carboximidamide] the IC50 [1] was 216 nM, the IC50 [2] was 328 nM and the “IDO1 human whole blood assay, IC50” value [3] was 954.9 nM.
For `C[C@H](O)C(=O)N1CC(Oc2nonc2/C(=N/O)N[C@H]2Cc3ccc(F)cc32)C1` [Example 48, N-[(7S)-4-fluorobicyclo[4.2.0]octa-1,3,5-trien-7-yl]-N′-hydroxy-4-({1-[(2S)-2-hydroxypropanoyl]azetidin-3-yl}oxy)-1,2,5-oxadiazole-3-carboximidamide], the IC50 [1] was 102 nM, the IC50 [2] was 88.4 nM and the “IDO1 human whole blood assay, IC50” value [3] was 400.3 nM.
In the case of `C[C@@H](CO)NC(=O)COc1nonc1/C(=N/O)N[C@H]1Cc2ccc(F)cc21` [Example 7, 2-[(4-{N-[(7S)-4-fluorobicyclo[4.2.0]octa-1,3,5-trien-7-yl]-N′-hydroxycarbamimidoyl}-1,2,5-oxadiazol-3-yl)oxy]-N-[(2S)-1-hydroxypropan-2-yl]acetamide], the IC50 [1] is reported as 72 nM, the IC50 [2] is reported as 88.6 nM and the “IDO1 human whole blood assay, IC50” value [3] is reported as 1176 nM.
In the case of `O=C(CO)N[C@H]1C[C@@H](Oc2nonc2/C(=N/O)N[C@H]2Cc3ccc(F)cc32)C1` [Example 38, N-{cis-3-[(4-{N-[(7S)-4-fluorobicyclo[4.2.0]octa-1,3,5-trien-7-yl]-N′-hydroxycarbamimidoyl}-1,2,5-oxadiazol-3-yl)oxy]cyclobutyl}-2-hydroxyacetamide], the IC50 [1] is reported as 67.8 nM, the IC50 [2] is reported as 74.9 nM and the “IDO1 human whole blood assay, IC50” value [3] is reported as 518.6 nM.
For `O=C(COc1nonc1/C(=N/O)N[C@H]1Cc2ccc(F)cc21)NCCO` [Example 4, (S)-2-((4-(N-(4-fluorobicyclo[4.2.0]octa-1(6),2,4-trien-7-yl)-N′-hydroxycarbamimidoyl)-1,2,5-oxadiazol-3-yl)oxy)-N-(2-hydroxyethyl)acetamide], the IC50 [1] was 139 nM, the IC50 [2] was 324 nM and the “IDO1 human whole blood assay, IC50” value [3] was 1414 nM.
With `O=C(CO)N[C@H]1C[C@H](Oc2nonc2/C(=N/O)N[C@H]2Cc3ccc(F)cc32)C1` [Example 56, N-{trans-3-[(4-{N-[(7S)-4-fluorobicyclo[4.2.0]octa-1,3,5-trien-7-yl]-N′-hydroxycarbamimidoyl}-1,2,5-oxadiazol-3-yl)oxy]cyclobutyl}-2-hydroxyacetamide] the IC50 [1] was 1490 nM, the IC50 [2] was 1340 nM and the “IDO1 human whole blood assay, IC50” value [3] was 386.1 nM.
In the case of `NC(=O)N[C@H]1C[C@@H](Oc2nonc2/C(=N/O)N[C@H]2Cc3ccc(F)cc32)C1` [Example 42, 4-{[cis-3-(carbamoylamino)cyclobutyl]oxy}-N-[(7S)-4-fluorobicyclo[4.2.0]octa-1,3,5-trien-7-yl]-N′-hydroxy-1,2,5-oxadiazole-3-carboximidamide], the IC50 [1] is reported as 49 nM, the IC50 [2] is reported as 40 nM and the “IDO1 human whole blood assay, IC50” value [3] is reported as 387.6 nM.
With `CS(=O)(=O)NCCOc1nonc1/C(=N/O)N[C@H]1Cc2ccc(F)cc21` [Example 6, N-[(7S)-4-fluorobicyclo[4.2.0]octa-1,3,5-trien-7-yl]-N′-hydroxy-4-{2-[(methylsulfonyl)amino]ethoxy}-1,2,5-oxadiazole-3-carboximidamide] the IC50 [1] was 48.3 nM, the IC50 [2] was 58.3 nM and the “IDO1 human whole blood assay, IC50” value [3] was 351.3 nM.
With `CC(=O)N[C@H]1C[C@@H](Oc2nonc2/C(=N/O)N[C@H]2Cc3ccc(F)cc32)C1` [Example 36, N-{cis-3-[(4-{N-[(7S)-4-fluorobicyclo[4.2.0]octa-1,3,5-trien-7-yl]-N′-hydroxycarbamimidoyl}-1,2,5-oxadiazol-3-yl)oxy]cyclobutyl}acetamide] the IC50 [1] was 50.7 nM, the IC50 [2] was 42.1 nM and the “IDO1 human whole blood assay, IC50” value [3] was 314.2 nM.
With `NS(=O)(=O)N[C@H]1C[C@@H](Oc2nonc2/C(=N/O)N[C@H]2Cc3ccc(F)cc32)C1` [Example 43, N-[(7S)-4-fluorobicyclo[4.2.0]octa-1,3,5-trien-7-yl]-N′-hydroxy-4-{[cis-3-(sulfamoylamino)cyclobutyl]oxy}-1,2,5-oxadiazole-3-carboximidamide] the IC50 [1] was 36.6 nM, the IC50 [2] was 45.4 nM and the “IDO1 human whole blood assay, IC50” value [3] was 1440 nM.
In the case of `NC(=O)NCCOc1nonc1/C(=N/O)NC1Cc2ccc(F)cc21` (stereo not drawn) [Example 11, 4-[2-(carbamoylamino)ethoxy]-N-(4-fluorobicyclo[4.2.0]octa-1,3,5-trien-7-yl)-N′-hydroxy-1,2,5-oxadiazole-3-carboximidamide], the IC50 [1] is reported as 74.8 nM, the IC50 [2] is reported as 194 nM and the “IDO1 human whole blood assay, IC50” value [3] is reported as 262.4 nM.
In the case of `CCC(=O)NCCOc1nonc1/C(=N/O)N[C@H]1Cc2ccc(F)cc21` [Example 33, N-{2-[(4-{N-[(7S)-4-fluorobicyclo[4.2.0]octa-1,3,5-trien-7-yl]-N′-hydroxycarbamimidoyl}-1,2,5-oxadiazol-3-yl)oxy]ethyl}propanamide], the IC50 [1] is reported as 39.8 nM, the IC50 [2] is reported as 53 nM and the “IDO1 human whole blood assay, IC50” value [3] is reported as 503.3 nM.
In the case of `CC(=O)NCCOc1nonc1/C(=N/O)N[C@H]1Cc2ccc(F)cc21` [Example 3, (S)—N-(2-((4-(N-(4-fluorobicyclo[4.2.0]octa-1(6),2,4-trien-7-yl)-N′-hydroxycarbamimidoyl)-1,2,5-oxadiazol-3-yl)oxy)ethyl)acetamide], the IC50 [1] is reported as 58.5 nM, the IC50 [2] is reported as 51.4 nM and the “IDO1 human whole blood assay, IC50” value [3] is reported as 185.4 nM.
